{
  "source": "patent US20050059615A1",
  "about": "“Transmucosal dosage forms for brain-targeted steroid chemical delivery systems” (priority 2003, published 2005)",
  "key": {"[1]": {"test_system": "ovariectomized female rats", "assay": "Lordosis quotient, female rat sexual behavior after ovariectomy", "assay_type": "in vivo, Sprague Dawley rats", "procedure": "Adult female Sprague Dawley rats (220-250 g) from Charles River Hungary Ltd., Godollo, Hungary, were used. Animals were kept in community cages (4 animals/cage) in a climate-controlled room (23∀2EC, 50-60% humidity), with a 14 hour light, 10 hour dark cycle of artificial lighting, using reversed light/dark cycle. Food and water were available ad libitum.\nAfter a minimum five-day acclimatization period, animals were ovariectomized under ether anesthesia, then were left to recover for 3 weeks before testing (reconvalescence). All animals were treated in accordance with the guidelines of the European Communities Council Directive (86/609/EEC) and studies were permitted by the Institutional Animal Care Commission.\nEstradiol benzoate and progesterone were obtained from Sigma Chemical Co. Inc., Budapest, Hungary. 2-Hydroxypropyl-β-cyclodextrin was purchased from Cerestar Inc., Hammond, Ind., US. […] E2-CDS as a 3% complex with HPβCD (E2-CDS-CD) was dissolved in distilled water and diluted with 27% HPβCD solution. E2-CDS-CD was synthesized by Alchem Laboratories Corporation, Alachua, Fla., US, using the procedure of Example 2 above.\nAfter recovery from surgery, ovariectomized female rats were divided into four groups and treated once a day for five days intravenously, via a bolus injection through the tail vein, as follows: (1) control, 27% HPβCD solution; (2) 0.003 mg/kg E2-CDS dissolved in 27% HPβCD solution; (3) 0.01 mg/kg E2-CDS dissolved in 27% HPβCD solution; and (4) 0.03 mg/kg E2-CDS dissolved in 27% HPβCD solution. A minimal number of ovariectomized (8 to 12) females were used per group. Intravenous treatments either with E2-CDS or HPβCD (controls) were carried out daily for 5 days beginning 2 days prior to the first day of behavior observations, in a volume of 0.05 mL/100 g body weight.\nThe behavior test was conducted in a plexiglass observation cage during the dark cycle. During behavioral observations, only a dim red light was on.\nAn experienced and active male rat was placed in the arena 5 minutes prior to the female. […] The lordosis quotient (LQ) expresses the estrogen effect on sexual receptivity and was calculated as follows: LQ=100×number of lordoses/10 mounts The observation of the sexual behavior of each female was carried out, in the case of E2-CDS, every day for 22 days; in the case of EB, investigations were carried out every day for 10 days. […] Citrated blood samples were taken by retro-orbital sinus puncture under light ether anesthesia. The samples were stored at 4EC for one hour, then centrifuged at 1000 g for 10 minutes. Plasma was separated and stored at −80EC until assayed. Plasma LH concentrations from individual samples were measured by double antibody radioimmunoassay kits obtained from Amersham Pharmacia Biotech, Rome, Italy. […] The limit of detection was 15 pg/mL.\nBehavioral changes were analyzed using the Mann-Whitney U test (Siegel, Nonparametric Statistics for the Behavioral Sciences, New York; McGraw-Hill Book Company, Inc., 1956). The Fisher exact test was used for percentage comparisons (Zar, Biostatistical Analysis, Prentice Hall, Inc., Englewood Cliffs, N.J., 1974). Serum LH data were analyzed for each time and treatment group by analysis of variance (ANOVA) followed by Bonferroni posthoc test."}, "[2]": {"assay": "Phase I clinical study: serum estradiol (E2) levels", "assay_type": "in vivo, postmenopausal women", "conditions": "2.86 mg buccal, repeated dosing, both groups", "source_text": "(§1) A brief evaluation of the results follows:"}, "LH": {"test_system": "LH", "assay": "Phase I clinical study: LH suppression", "assay_type": "in vivo, postmenopausal women", "method": "(§2) Even more recently, in a Phase I clinical study of postmenopausal women, two different administration regimens of a 2.86 mg E2-CDS buccal delivery tablet were evaluated for safety and effects on hormone levels. The subjects were 12 healthy postmenopausal volunteers, divided into two groups of six. In Group A, women were dosed once daily for 10 days (10 doses); in Group B, women were dosed once every other day for 13 days (7 doses)."}, "FSH [3]": {"test_system": "FSH", "assay": "Phase I clinical study: FSH suppression", "assay_type": "in vivo, postmenopausal women", "conditions": "for suppression in FSH levels: first 24 hours post-dose, 2.86 mg buccal", "source_text": "as §1"}, "prolactin": {"test_system": "prolactin", "assay": "Phase I clinical study: prolactin", "assay_type": "in vivo, postmenopausal women", "source_text": "as §1"}, "testosterone": {"test_system": "testosterone", "assay": "Phase I clinical study: serum testosterone", "assay_type": "in vivo, postmenopausal women", "conditions": "for testosterone levels exceeding baseline values: 72 hours after the last dose", "source_text": "as §1"}, "[4]": {"assay": "Phase I clinical study: safety and tolerance", "assay_type": "in vivo, postmenopausal women", "conditions": "2.86 mg buccal, 12 subjects, both regimens", "source_text": "as §1"}, "FSH [5]": {"test_system": "FSH", "assay": "Earlier clinical trial, single 2.5 mg buccal E2-CDS: FSH suppression", "assay_type": "in vivo, postmenopausal women", "conditions": "first 24 hour post-dose, 2.5 mg E2-CDS", "source_text": "as §1"}, "[6]": {"conditions": "average 7 degrees of substitution, cited from earlier work"}, "castrated male rats": {"test_system": "castrated male rats", "conditions": "single intravenous dose of 3 mg/kg; cited from earlier work"}, "2OHE1/16OHE1": {"test_system": "2OHE1/16OHE1", "assay": "Phase I clinical study: urinary estrone and 2OHE1/16OHE1", "method": "as §2\nUrine was collected for 24 hours on day 1 in both groups, and overnight (8 hours) on day 10 (Group A) and on day 13 (Group B), respectively, to determine the amounts of voided urinary estrone (E1), 2OHE1, 16OHE, and the ratios of 2OHE1 to 16OHE1."}, "[7]": {"conditions": "0.003 mg/kg i.v. once a day for 5 days"}, "[8]": {"conditions": "0.01 mg/kg i.v. once a day for 5 days"}, "[9]": {"conditions": "0.03 mg/kg i.v. once a day for 5 days"}},
  "note": "Where two headings read alike, the source gives them in different places.",
  "data": [
    {"smiles": "CN1C=CCC(C(=O)O[C@H]2CC[C@H]3[C@@H]4CCc5cc(O)ccc5[C@H]4CC[C@]23C)=C1", "note": "[E2-CDS, 17β-[(1-methyl-1,4-dihydro-3-pyridinyl)carbonyloxy]estra-1,3,5(10)-trien-3-ol]", "values": [
      {"measurement": "effect on lordosis quotient", "setting": "[1]; [7]", "result": "slightly enhanced"},
      {"measurement": "period of the LQ effect", "setting": "[1]; [7]", "result": "3 to 18", "unit": "days"},
      {"measurement": "statistical significance of LQ effect", "setting": "[1]; [7]", "result": "not statistically significant"},
      {"measurement": "day till which the LQ increase lasted (not statistically significant after day 11)", "setting": "[1]; [8]", "result": 15, "unit": "days"},
      {"measurement": "effect on lordosis quotient LQ", "setting": "[1]; [8]", "result": "significantly enhanced"},
      {"measurement": "period of the LQ effect", "setting": "[1]; [8]", "result": "day 5 to day 11"},
      {"measurement": "effect on lordosis quotient LQ", "setting": "[1]; [9]", "result": "significantly enhanced"},
      {"measurement": "maximal value of lordosis quotient (LQ)", "setting": "[1]; [9]", "result": 73},
      {"measurement": "period over which the LQ effect lasted", "setting": "[1]; [9]", "result": "day 3 to day 18"},
      {"measurement": "accumulation of trough E2 levels", "setting": "[2]", "result": "no signs of accumulation"},
      {"measurement": "post-study LH levels", "setting": "LH; 72 hours after the last dose", "result": "not different any more from screening/baseline values"},
      {"measurement": "time of maximum LH depression", "setting": "LH; Group A", "result": "7.3±5.3", "unit": "hours post-dose"},
      {"measurement": "time of maximum LH depression", "setting": "LH; Group B", "result": "7.3±2.7", "unit": "hours post-dose"},
      {"measurement": "maximum decrease in LH from baseline", "setting": "LH; first 24 hours, 2.86 mg buccal, Group A", "result": "13.8±4.9", "unit": "mIU/mL"},
      {"measurement": "maximum decrease in LH from baseline", "setting": "LH; first 24 hours, 2.86 mg buccal, Group B", "result": "12.7±6.8", "unit": "mIU/mL"},
      {"measurement": "decrease in LH levels from baseline", "setting": "LH; first 24 hours, 2.86 mg buccal, Groups A and B", "result": "35-40%"},
      {"measurement": "post-study FSH levels below screening/baseline values", "setting": "FSH [3]; 72 hours after the last dose", "result": "14-25%"},
      {"measurement": "time of maximum FSH suppression", "setting": "FSH [3]; Group A", "result": "13.2±5.7", "unit": "hours post-dose"},
      {"measurement": "time of maximum FSH suppression", "setting": "FSH [3]; Group B", "result": "11.8±5.8", "unit": "hours post-dose"},
      {"measurement": "suppression in FSH levels", "setting": "FSH [3]; Group A", "result": 15, "unit": "%"},
      {"measurement": "suppression in FSH levels", "setting": "FSH [3]; Group B", "result": 16, "unit": "%"},
      {"measurement": "increase in prolactin levels compared to baseline", "setting": "prolactin; end of the study (day 13), Group A", "result": 29.8, "unit": "%"},
      {"measurement": "increase in prolactin levels compared to baseline", "setting": "prolactin; end of the study (day 16), Group B", "result": 16, "unit": "%"},
      {"measurement": "testosterone levels exceeding baseline values", "setting": "testosterone; Group A", "result": 14, "unit": "%"},
      {"measurement": "testosterone levels exceeding baseline values", "setting": "testosterone; Group B", "result": 28, "unit": "%"},
      {"measurement": "mean testosterone AUC24 lower than baseline AUC24 (=C0*24)", "setting": "testosterone; day 1, Group A", "result": 31.1, "unit": "%"},
      {"measurement": "minimum serum testosterone concentration", "setting": "testosterone; day 1, Group A", "result": "1.3 ± 1.9", "unit": "ng/dL"},
      {"measurement": "time to reach minimum testosterone levels", "setting": "testosterone; day 1, Group A", "result": "6.5 ± 11.7", "unit": "h"},
      {"measurement": "mean testosterone AUC24 lower than baseline AUC24 (=C0*24)", "setting": "testosterone; day 1, Group B", "result": 23.0, "unit": "%"},
      {"measurement": "minimum serum testosterone concentration", "setting": "testosterone; day 1, Group B", "result": "4.0 ± 3.9", "unit": "ng/dL"},
      {"measurement": "time to reach minimum testosterone levels", "setting": "testosterone; day 1, Group B", "result": "7.3 ± 11.3", "unit": "h"},
      {"measurement": "adverse events (AEs) in total", "setting": "[4]", "result": "seven"},
      {"measurement": "seriousness of adverse events", "setting": "[4]", "result": "no serious AE was observed"},
      {"measurement": "extent of maximum FSH suppression", "setting": "FSH [5]", "result": 12.5, "unit": "%"},
      {"measurement": "solubility of E2-CDS (phase solubility data point)", "setting": "[6]; 20% w/v HPβCD", "result": 6.73, "unit": "mg/mL"},
      {"measurement": "solubility of E2-CDS (phase solubility data point)", "setting": "[6]; 40% w/v HPβCD", "result": 16.36, "unit": "mg/mL"},
      {"measurement": "solubility of E2-CDS (phase solubility data point)", "setting": "[6]; 60% w/v HPβCD", "result": 30.19, "unit": "mg/mL"},
      {"measurement": "duration of improved masculine sexual behavior", "setting": "castrated male rats", "result": 28, "unit": "days"},
      {"measurement": "increase of the ratio of 2OHE1 to 16OHE1 during treatment", "setting": "2OHE1/16OHE1; Group A", "result": 63.6, "unit": "%"},
      {"measurement": "increase of the ratio of 2OHE1 to 16OHE1 during treatment", "setting": "2OHE1/16OHE1; Group B", "result": 54.7, "unit": "%"}
    ]}
  ]
}
